US20220387358A1, “CERAMIDE ANALOG SACLAC MODULATES SPHINGOLIPID LEVELS AND MCL-1 SPLICING TO INDUCE APOPTOSIS IN ACUTE MYELOID LEUKEMIA” (University of Virginia Patent Foundation, priority 2019, published 2022)
Several values for one entry are separate records, joined by “and”; a condition that tells them apart may be missing. Equal values may be shown once.

Tested on: human AML cell lines
Assay: Sphingolipid analysis by LC-ESI-MS/MS (S1P, total ceramide)
Assay type: cell-based
Conditions: 2.5 μM, 24 hours
Experimental: Lipid extraction and analysis was done using liquid chromatography-electrospray ionization-tandem mass spectrometry (LC-ESI-MS/MS) as previously described (22). Cells were plated at 5 million cells per 6 ml and treated with SACLAC or DMSO for 24 hours. Lipids were extracted from cell pellets using an azeotrophic mix of isopropanol: water: ethyl acetate (3:1:6; v:v:v). Internal standards (50 pmol of d17 long-chain bases and C12 acylated sphingolipids) were added to samples at the onset of the extraction procedure. Extracts were separated on a Waters I-class Acquity UPLC chromatography system (Waters Corporation, Milford, Mass., United States of America). Mobile phases were (A) 60:40 water: acetonitrile and (B) 90:10 isopropanol:methanol with both mobile phases containing 5 mM ammonium formate and 0.1% formic acid. A Waters C18 CSH 2.1 mm ID×10 cm column maintained at 65° C. was used for the separation of the sphingoid bases, 1-phosphates, and acylated sphingolipids. The eluate was analyzed with an inline Waters TQ-S mass spectrometer (Waters Corporation, Milford, Mass., United States of America) using multiple reaction monitoring. All data reported are based on monoisotopic mass and are represented as pmol/mg protein.

Structure (SMILES): CCCCCCCCCCCCCCC[C@@H](O)[C@H](CO)NC(=O)CCl [SACLAC, N-[(2S,3R)-1,3-dihydroxyoctadecan-2-yl]2-chloroacetamide]
- increase in total ceramide (HL-60/VCR, THP-1, OCI-AML2): 2.5 fold and 2- to 3 fold
- S1P content reduced by (HL-60/VCR): 87%
- S1P levels (OCI-AML2): below the limit of detection
- S1P levels (THP-1): below the limit of detection
